# Test results reported in patent publication US6004957A, “Sulfonamide inhibitors of aspartyl protease” (Vertex Pharmaceuticals, Incorporated, priority 1998, dated 1999).
# Test system: HIVIIIb in CCRM-CEM cells
# Experiment: Anti-viral potency in CCRM-CEM cells acutely infected with HIVIIIb (method of Meek et al.), extracellular p24 antigen
# Assay type: cell-based, HIV-1
# Details: Human immunodeficiency virus 1, HIV replication, Table VIII, read-out: IC90 Range
# From the text: As discussed above, the novel compounds of the present invention are excellent ligands for aspartyl proteases, particularly HIV-1 and HIV-2 proteases. Accordingly, these compounds are capable of targeting and inhibiting late stage events in HIV replication, i.e., the processing of the viral polyproteins by HIV encoded proteases. […] Because aspartyl protease is essential for the production of mature virions, inhibition of that processing effectively blocks the spread of virus by inhibiting the production of infectious virions, particularly from chronically infected cells. […] Other anti-viral assays have confirmed the potency of these compounds.
# Compounds of formula I were tested for their antiviral potency in several virological assays. In the first assay, the compounds were added as a solution in dimethylsulfoxide (DMSO) to a test cell culture of CCRM-CEM cells, a strain of CD4^+ human T-cell lymphoma cells, previously acutely infected with HIVIIIb using standard protocols (see Meek, T. D. et al., "Inhibition of HIV-1 protease in infected T-lymphocytes by synthetic peptide analogues", Nature, 343, p. 90 (1990). Preferred compounds are those which are able to inhibit 90% of viral infectivity at a concentration of 1 μM or less. More preferred compounds are those which are able to inhibit 90% of viral infectivity at a concentration of 100 nM or less.
# The effect of the compounds on inhibiting the replication of the virus was measured by determining the HIV extracellular p24 antigen concentration using a commercial enzyme immunoassay (obtained from Coulter Corporation, Hialeah, Fla.).
row,SMILES,IC90 [nM]
1,CC(C)CN(C[C@@H](O)[C@H](Cc1ccccc1)NC(=O)OC(C)(C)C)S(=O)(=O)c1ccc2nonc2c1 [Compound 64],1000 to 10000
2,"C=C(COC)COC(=O)N[C@@H](Cc1ccccc1)[C@H](O)CN(CC(C)C)S(=O)(=O)c1ccc(NC(C)=O)cc1 [Compound 155, N-4-((2-(syn)-Hydroxy-3-((2-methoxymethyl-allyloxycarbonylamino)-4-(S)-phenyl-butyl)-isobutyl-sulfamoyl)-phenyl)-acetamide]",101 to 1000
3,"CC(C)CN(C[C@@H](O)[C@H](Cc1ccccc1)NC(=O)O[C@H]1CCOC1)S(=O)(=O)c1ccc(Cl)c(Cl)c1 [Compound 37, 3,4-Dichloro-N-((2 syn,3S)-2-hydroxy-4-phenyl-3-((S)-tetrahydrofuran-3-yloxycarbonylamino)-butyl)-N-isobutyl-benzenesulfonamide]",101 to 1000
4,Cc1noc(C)c1S(=O)(=O)N(Cc1ccccc1)C[C@@H](O)[C@H](Cc1ccccc1)NC(=O)[C@H](CC(N)=O)NC(=O)c1ccc2ccccc2n1 [Compound 3],1000 to 10000
5,"CC(=O)Nc1ccc(S(=O)(=O)N(CC(C)C)C[C@@H](O)[C@H](Cc2ccccc2)NC(=O)[C@H](CC(N)=O)NC(=O)c2ccc3ccccc3n2)cc1 [Compound 17, (S)-N-1-(1-(S)-Benzyl-3-((4-acetylamino-benzenesulfonyl)-isobutyl-amino)-2-(syn)-hydroxy-propyl)-2-((quinoline-2-carbonyl)-amino)-succinamide]",101 to 1000
6,"O=C(N[C@@H](Cc1ccccc1)[C@H](O)CN(CC1CCCC1)S(=O)(=O)c1ccc(O)cc1)O[C@H]1CCOC1 [Compound 169, N-Cyclopentylmethyl-4-hydroxy-N-((2 syn,3S)-2-hydroxy-4-phenyl-3-((S)-tetrahydrofuran-3-yloxycarbonylamino)-butyl)-benzenesulfonamide]",< 100
7,CC(C)CN(C[C@@H](O)[C@H](Cc1ccccc1)NC(=O)O[C@H]1CCOC1)S(=O)(=O)c1ccc2nonc2c1 [Compound 66],101 to 1000
8,"CC(=O)Nc1ccc(S(=O)(=O)N(CC2CCCCC2)C[C@@H](O)[C@H](Cc2ccccc2)NC(=O)O[C@H]2CCOC2)cc1 [Compound 160, N-(4-(Cyclohexylmethyl)-((2 syn,3S)-2-hydroxy-4-phenyl-3-((S)-tetrahydrofuran-3-yloxycarbonylamino)-butyl)-sulfamoyl-phenyl)-acetamide]",< 100
9,"COc1ccc(S(=O)(=O)N(CC2CCCCC2)C[C@@H](O)[C@H](Cc2ccccc2)NC(=O)O[C@H]2CCOC2)cc1 [Compound 158, N-Cyclohexylmethyl-N-((2 syn,3S)-2-hydroxy-4-phenyl-3-((S)-tetrahydrofuran-3-yloxycarbonylamino)-butyl)-4-methoxy-benzenesulfonamide]",< 100
10,"CC(C)CN(C[C@@H](O)[C@H](Cc1ccccc1)NC(=O)[C@H](CC(N)=O)NC(=O)c1ccc2ccccc2n1)S(=O)(=O)N(C)C [Compound 21, N-1-((1S-2 syn)-1-Benzyl-2-hydroxy-3-(1-isobutyl-3,3-dimethylsulfonylurea)-propyl)-2-((quinoline-2-carbonyl)-amino)-succinamide]",< 100
11,"CC(C)CN(C[C@@H](O)[C@H](Cc1ccccc1)NC(=O)[C@H](CC(N)=O)NC(=O)c1ccc2ccccc2n1)S(=O)(=O)c1cccc2nonc12 [Compound 20, (S)-N-1-(3-((Benzo(1,2,5)oxadiazole-4-sulfonyl)-isobutyl-amino)-(1S,2 syn)-1-benzyl-2-hydroxy-propyl)-2-((quinoline-2-carbonyl)-amino)-succinamide]",< 100
12,CC(C)CN(C[C@@H](O)[C@H](Cc1ccccc1)NC(=O)OCc1ccccc1)S(=O)(=O)c1ccc(F)cc1 [Compound 38],1000 to 10000
13,C=CCOC(=O)N[C@@H](Cc1ccccc1)[C@H](O)CN(CC(C)C)S(=O)(=O)c1ccc(NC(C)=O)cc1 [Compound 27],1000 to 10000
14,"O=C(N[C@@H](Cc1ccccc1)[C@H](O)CN(CC1CCCC1)S(=O)(=O)c1ccc(Cl)c(Cl)c1)O[C@H]1CCOC1 [Compound 183, 3,4-Dichloro-N-cyclopentylmethyl-N-((2 syn,3S)-2-hydroxy-4-phenyl-3-((S)-tetrahydrofuran-3-yloxycarbonylamino)-butyl)-benzenesulfonamide]",101 to 1000
15,"CC(=O)Nc1ccc(S(=O)(=O)N(CC2CCCC2)C[C@@H](O)[C@H](Cc2ccccc2)NC(=O)O[C@H]2CCOC2)cc1 [Compound 125, N-(4-(Cyclopentylmethyl-((2 syn,3S)-2-hydroxy-4-phenyl-3-((S)-tetrahydrofuran-3-yloxycarbonylamino)-butyl)-sulfamoyl)-phenyl)-acetamide]",101 to 1000
16,"CC(C)CN(C[C@@H](O)[C@H](Cc1ccccc1)NC(=O)O[C@H]1CCOC1)S(=O)(=O)c1cccc(S(N)(=O)=O)c1 [Compound 112, Benzene-1,3-disulfonic acid 1-amide 3-((2 syn,3S)-2-hydroxy-4-phenyl-3-(3-(S)-tetrahydrofuran-3-yloxycarbonylamino)-butyl)-isobutyl-amide]",101 to 1000

row,SMILES,IC90 [nM]
1,"O=C(N[C@@H](Cc1ccccc1)[C@H](O)CN(CC1CCCC1)S(=O)(=O)c1ccc([N+](=O)[O-])cc1)O[C@H]1CCOC1 [Compound 170, N-Cyclopentylmethyl-N-((2 syn,3S)-2-hydroxy-4-phenyl-3-((S)-tetrahydrofuran-3-yloxycarbonylamino)-butyl)-4-nitro-benezensulfonamide]",101 to 1000
2,"CC(C)CN(C[C@@H](O)[C@H](Cc1ccccc1)NC(=O)[C@H](CC(N)=O)NC(=O)c1ccc2ccccc2n1)S(=O)(=O)c1ccc(F)cc1 [Compound 14, (S)-N-1-(1-(S)-Benzyl-3-((4-fluoro-benzenesulfonyl)-isobutyl-amino)-2-(syn)-hydroxy-propyl)-2-((quinoline-2-carbonyl)-amino)-succinamide]",< 100
3,"CC[C@H](C)[C@H](NC(=O)OCc1ccccc1)C(=O)N[C@@H](Cc1ccccc1)[C@H](O)CN(CC(C)C)S(=O)(=O)c1ccc(F)c(NC(C)=O)c1 [Compound 187, Benzyloxycarbonyl-(L)-isoleucine-N-(5-((3-amino-(2 syn,3S)-2-hydroxy-4-phenyl-butyl)-isobutyl-sulfamoyl)-2-fluoro-phenyl)-acetamide]",101 to 1000
4,"CC(C)CN(C[C@@H](O)[C@H](Cc1ccccc1)NC(=O)O[C@H]1CCOC1)S(=O)(=O)c1ccc(-c2ccon2)s1 [Compound 145, 5-Isoxazol-3-yl-thiophene-2-sulfonic acid ((2 syn,3S)-2-hydroxy-4-phenyl-3-((S)-tetrahydrofuran-3-yloxycarbonylamino)-butyl)-isobutyl-amide]",101 to 1000
5,CC(C)CN(C[C@@H](O)[C@H](Cc1ccccc1)NC(=O)OC(C)(C)C)S(=O)(=O)c1ccc(F)cc1F [Compound 49],1000 to 10000
6,"CC(=O)Nc1ccc(S(=O)(=O)N(CC(C)C)C[C@@H](O)[C@H](Cc2ccccc2)NC(=O)OCc2cccnc2)cc1 [Compound 44, N-(4-(((2 syn,3S)-2-Hydroxy-4-phenyl-3-(pyridin-3-yl-methoxycarbonylamino)-butyl)-isobutyl-sulfamoyl)-phenyl)-acetamide]",101 to 1000
7,CC(=O)Nc1ccc(S(=O)(=O)N(CC(C)C)C[C@@H](O)[C@H](Cc2ccccc2)NC(=O)OC(C)(C)C)cc1 [Compound 39],1000 to 10000
8,CC(C)CN(C[C@@H](O)[C@H](Cc1ccccc1)NC(=O)OC(C)(C)C)S(=O)(=O)c1ccc(F)cc1 [Compound 32],1000 to 10000
9,"CC(=O)Nc1ccc(S(=O)(=O)N(CC(C)C)C[C@@H](O)[C@H](Cc2ccccc2)NC(=O)[C@H](CC(N)=O)NC(=O)c2ccc3ccccc3n2)cc1F [Compound 15, (S)-N-1-(3-((4-Acetylamino-3-fluoro-benzenesulfonyl)-isobutyl-amino)-(1S,2 syn)-1-benzyl-2-hydroxy-propyl)-2-((quinoline-2-carbonyl)-amino)-succinamide]",< 100
10,CC(=O)Nc1nc(C)c(S(=O)(=O)N(Cc2ccccc2)C[C@@H](O)[C@H](Cc2ccccc2)NC(=O)[C@H](CC(N)=O)NC(=O)c2ccc3ccccc3n2)s1 [Compound 5],101 to 1000
11,"CC(C)CN(C[C@@H](O)[C@H](Cc1ccccc1)NC(=O)O[C@H]1CCOC1)S(=O)(=O)c1ccc([N+](=O)[O-])cc1 [Compound 167, N-((2 syn,3S)-2-Hydroxy-4-phenyl-3-((S)-tetrahydrofuran-3-yloxycarbonylamino)-butyl)-N-isobutyl-4-nitro-benzenesulfonamide]",101 to 1000
12,COC(=O)N[C@@H](Cc1ccccc1)[C@H](O)CN(CC(C)C)S(=O)(=O)c1ccc(Cl)c(Cl)c1 [Compound 103],1000 to 10000
13,"CC(C)CN(C[C@@H](O)[C@H](Cc1ccccc1)NC(=O)O[C@H]1CCOC1)S(=O)(=O)N1CCCCC1 [Compound 150, Piperidine-1-sulfonic acid ((2 syn,3S)-2-hydroxy-4-phenyl-3-((S)-tetrahydrofuran-3-yloxycarbonylamino)-butyl)-isobutyl-amide]",101 to 1000
14,CC(=O)Nc1ccc(S(=O)(=O)N(CC(C)C)C[C@@H](O)[C@H](Cc2ccccc2)NC(=O)OCc2ccccc2)cc1 [Compound 61],1000 to 10000
15,O=C(N[C@@H](Cc1ccccc1)[C@H](O)CN(CC1CCCC1)S(=O)(=O)c1ccc(F)cc1)OCc1cccnc1 [Compound 111],1000 to 10000
